Laboratory results: paper PMC6479946 (Molecules, 2019)
Values joined by “and” are separate entries in the source; they are usually repeats but may differ in a detail not shown here. Equal values may be shown once. Read-outs that look alike come from different tables or passages of the source.

Experiments:
[1] = in vivo; details: for AUC(0-inf) / Tmax / AUC(0-t) / CL/F / Cmax / k el / MRT: male, Sprague-Dawley, po, 5 mg/kg; for AUC(0-inf): AUC(0-∞) of MEM; for AUC(0-inf) / Tmax / AUC(0-t) / CL/F / Cmax / k el / MRT / Ka of MEM / T1/2a of MEM / T1/2d of MEM / Vd of MEM: n = 8, mean ± SD; for Tmax: Tmax of MEM; for AUC(0-t): AUC(0-t) of MEM; for CL/F: CL/F of MEM; for Cmax: Cmax of MEM; for k el: Ke of MEM; for MRT: MRT of MEM
Protocol: The analytes were separated on an ACQUITY UPLC BEH C18 column (2.1 mm × 50 mm, 1.7 μm, Waters, Milford, USA). […] The flow rate was 0.3 mL/min. The column and sample-tray temperature were kept at 40 °C and 4 °C, respectively. The injection volume was 5.0 μL using a partial loop with needle over fill mode.
The compound dependent parameters used for analysis were summarized in Supplementary materials Table S1.
A rapid and convenient precipitation method was used to prepare the plasma samples. A 100 μL aliquot of plasma sample was spiked with 100 μL of IS solution and 300 μL of methanol in a 1.5 mL centrifuge tube; subsequently, the mixtures were vortex-mixed for 30.0 s and then centrifuged at 1.5 × 10^4× g for 10 min at 4 °C. A 100 μL aliquot of supernatant was combined with 25.0 μL of 0.1% formic acid water in a clean centrifuge tube and then vortex-mixed for 30 s. A 5.0 μL aliquot of mixture was injected into the UPLC-MS/MS system for analysis.
Fifty-six pathogen-free male adult rats were randomly divided into seven groups with eight rats in each group for pharmacokinetic study. […] One group was intragastrically administered with MEM hydrochloride 5.0 mg/kg dissolved in ultrapure water, namely, MEM group. […] The blood samples were immediately centrifuged at 4.0 × 10^3× g at […] for 10 min, and 100 μL of the supernatant plasma was transferred into another new 1.5 mL centrifuge tube and stored at −20 °C until UPLC-MS/MS analysis.
All standard curves and quantitative data were processed by Agilent Mass Hunter Quantitative Analysis Workstation Software. […] All the pharmacokinetic parameters were processed using the non-compartmental pharmacokinetics data analysis software program PK solutions 2.0^TM (Summit Research Services, USA). […] The AUC(0-t) was obtained by the linear/logarithmic trapezoidal rule, and the area under the plasma concentration versus time curve from zero to infinity (AUC(0-∞)) was calculated by means of the trapezoidal rule with extrapolation to infinity with a terminal elimination rate constant. The Pearson correlation coefficient analysis was processed by IBM SPSS Statistics Version 21. A statistical analysis was performed using analysis of variance with α = 0.05 as the minimal level of significance.

[2] = test system: CYP2D6; details: rat liver microsomes; cited from earlier work
[3] = test system: CYP3A4; details: rat liver microsomes; cited from earlier work
[4] = rats, cited from earlier work
[5] = test system: CYP1A2; details: rat liver microsomes; cited from earlier work
[6] = rat, plasma, rat plasma, oral MEM 5.0 mg/kg + HAR 20.0 mg/kg (HAR-L + MEM)
[7] = rat, plasma, rat plasma, oral MEM 5.0 mg/kg + HAR 40.0 mg/kg (HAR-M + MEM)
[8] = rat, plasma, rat plasma, oral MEM 5.0 mg/kg + HAR 80.0 mg/kg (HAR-H + MEM)
[9] = rat, plasma, rat plasma, oral MEM 5.0 mg/kg alone (MEM group)
[10] = rat plasma, oral MEM 5.0 mg/kg + HAR 20.0 mg/kg (HAR-L + MEM)
[11] = rat plasma, oral MEM 5.0 mg/kg + HAR 40.0 mg/kg (HAR-M + MEM)
[12] = rat plasma, oral MEM 5.0 mg/kg + HAR 80.0 mg/kg (HAR-H + MEM)
[13] = rat plasma, oral MEM 5.0 mg/kg alone (MEM group)

## CC12CC3CC(C)(C1)CC(N)(C3)C2 [MEM, 1-amino-3,5-dimethyladamantane, reference compound]
[1]; rat, in vivo, rat plasma, oral MEM 5.0 mg/kg + HAR 80.0 mg/kg (HAR-H + MEM)
  AUC(0-inf): 0.781 ± 0.285 µg·h/mL
[1]; rat, in vivo, rat plasma, oral MEM 5.0 mg/kg + HAR 20.0 mg/kg (HAR-L + MEM)
  Tmax: 3.13 ± 2.23 h
[1]; [6]
  AUC(0-t): 0.392 ± 0.0552 µg·h/mL
  AUC(0-inf): 0.477 ± 0.0751 µg·h/mL
  CL/F: 10.7 L/h/kg
  Cmax: 0.0505 ± 0.00759 µg/mL
  k el: 5.31e-05 s⁻¹
  MRT: 7.45 ± 1.51 h
[1]; [7]
  AUC(0-t): 0.472 ± 0.105 µg·h/mL
  AUC(0-inf): 0.547 ± 0.142 µg·h/mL
  CL/F: 9.7 L/h/kg
  Cmax: 0.0749 ± 0.015 µg/mL
  k el: 5.97e-05 s⁻¹
  MRT: 6.25 ± 1.25 h
  Tmax: 1.56 ± 1.11 h
[1]; [8]
  AUC(0-t): 0.603 ± 0.149 µg·h/mL
  CL/F: 7.1 L/h/kg
  Cmax: 0.0743 ± 0.0266 µg/mL
  k el: 5.64e-05 s⁻¹
  MRT: 8.5 ± 3.74 h
  Tmax: 4 ± 1.85 h
[1]; [9]
  AUC(0-t): 0.349 ± 0.0462 µg·h/mL
  AUC(0-inf): 0.367 ± 0.00487 µg·h/mL
  CL/F: 13.8 L/h/kg
  Cmax: 0.0848 ± 0.0258 µg/mL
  k el: 7.25e-05 s⁻¹
  MRT: 4.04 ± 0.808 h
  Tmax: 1.31 ± 0.579 h
[1]; [10]
  Ka of MEM: 0.595 ± 0.315 h⁻¹
  T1/2a of MEM: 1.37 ± 0.468 h
  T1/2d of MEM: 2.42 ± 1.06 h
  Vd of MEM: 60.1 ± 19.3 L/kg
[1]; [11]
  Ka of MEM: 1.08 ± 1.05 h⁻¹
  T1/2a of MEM: 0.945 ± 0.398 h
  T1/2d of MEM: 1.67 ± 0.560 h
  Vd of MEM: 48.4 ± 16.4 L/kg
[1]; [12]
  Ka of MEM: 0.481 ± 0.203 h⁻¹
  T1/2a of MEM: 1.61 ± 0.459 ^bb h
  T1/2d of MEM: 1.61 ± 0.529 h
  Vd of MEM: 38.3 ± 13.1 L/kg
[1]; rat plasma, oral MEM 5.0 mg/kg + HAR 20.0, 40.0 or 80.0 mg/kg
  MEM in plasma within 24.0 h after co-administrations: a small amount of MEM could still be detected
[1]; [13]
  MEM in plasma after 24 h of administration: no MEM was detected
  Ka of MEM: 1.73 ± 0.848 h⁻¹
  T1/2a of MEM: 0.482 ± 0.202 h
  T1/2d of MEM: 3.08 ± 2.37 h
  Vd of MEM: 53.8 ± 10.6 L/kg
[1]; rat, in vivo
  T1/2e of MEM: 2.69 ± 0.306 h and 3.96 ± 1.44 h and 3.62 ± 1.42 h and 4.27 ± 3.03 h
[2]
  inhibition of CYP2D6: strong inhibitor
[3]
  inhibition of CYP3A4: weak inhibitor
[4]; administered orally with 1.22 mg eq./mL MEM
  T1/2e of MEM: 2.23 h
[4]; administered orally with 2.00 mg eq./mL MEM
  T1/2e of MEM: 3.92 h
[5]
  inhibition of CYP1A2: weak inhibitor
